One test deals with T1, h-Sortilin (Homo sapiens, UniProt Q99523).
T1 sequence (Q99523 78-831): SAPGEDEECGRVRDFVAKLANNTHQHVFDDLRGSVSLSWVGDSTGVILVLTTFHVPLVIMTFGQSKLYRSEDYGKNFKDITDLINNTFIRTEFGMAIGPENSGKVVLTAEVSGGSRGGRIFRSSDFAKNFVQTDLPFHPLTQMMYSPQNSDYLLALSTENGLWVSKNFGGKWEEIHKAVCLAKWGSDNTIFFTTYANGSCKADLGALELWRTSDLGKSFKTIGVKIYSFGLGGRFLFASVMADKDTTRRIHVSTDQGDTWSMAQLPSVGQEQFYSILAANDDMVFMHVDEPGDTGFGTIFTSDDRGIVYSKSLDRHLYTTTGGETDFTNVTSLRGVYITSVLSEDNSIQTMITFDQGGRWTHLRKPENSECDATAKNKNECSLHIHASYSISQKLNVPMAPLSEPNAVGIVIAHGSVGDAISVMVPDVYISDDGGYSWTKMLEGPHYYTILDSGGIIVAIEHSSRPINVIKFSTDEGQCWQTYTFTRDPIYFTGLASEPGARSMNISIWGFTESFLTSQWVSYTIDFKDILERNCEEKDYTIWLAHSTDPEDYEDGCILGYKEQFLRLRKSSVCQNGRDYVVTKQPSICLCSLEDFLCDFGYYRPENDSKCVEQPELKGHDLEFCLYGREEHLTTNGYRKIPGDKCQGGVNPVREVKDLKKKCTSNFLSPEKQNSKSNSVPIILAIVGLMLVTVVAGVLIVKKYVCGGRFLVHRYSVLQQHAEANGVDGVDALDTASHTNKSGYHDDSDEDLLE
The test is described as follows: Neurotensin scintillation proximity assay (SPA), displacement of [3H]-neurotensin binding. As to conditions: 150 nM 6his-Sortilin, 5 nM [3H]-Neurotensin, 8 concentrations, average of at least 2 determinations. How it is done: The exemplified compounds of the invention were tested in a Neurotensin (NTS) scintillation proximity assay (SPA). NTS, which is a 13 amino acid neuropeptide, is a sortilin ligand. The IC50 is a measure of the amount of the compound required to inhibit the binding of NTS to sortilin by 50%. The skilled person will recognise that the lower the IC50 value, the less of the compound needed to achieve the desired effect, and as a result, the chances of undesirable off-target effects are reduced.
Compound affinity was determined by measuring the displacement of [^3H]-neurotensin binding to h-Sortilin in SPA format. Total volume of 40 µl in 50 mM HEPES pH 7.4 assay buffer containing 100 mM NaCl, 2.0 mM CaCl2, 0.1% BSA and 0.1% Tween-20. Compound pre-incubation for 30 minutes at room temperature with 150 nM of 6his-Sortilin before 5 nM [3H]-Neurotensin and Ni chelate imaging beads (Perkin Elmer) were added, after 6 hours the plate was read on a ViewLux with 360 s exposure time. Dose-response evaluation of compounds was performed with 8 concentrations of drugs (covering 3 decades). IC50 values were calculated by nonlinear regression using the sigmoid concentration-response (variable slope) using CDD Vault software. All values reported are average of at least 2 determinations.

A further test deals with T2, Human (6-His)Sortilin (Homo sapiens, UniProt Q99523).
T2 construct: purchased RnD Systems
T2 sequence (Q99523 78-831): T1 sequence (Q99523 78-831)
The test is described as follows: Human Sortilin GCI (Grating-Coupled Interferometry) binding assay. As to conditions: Creoptix WAVE-RAPID, single concentration, immobilised Human (6-His)Sortilin, 1:1 kinetic binding model; read-out: h-Sortilin GCI KD. How it is done: The exemplified compounds of the invention were tested in a Grating-Coupled Interferometry (GCI) Sortilin binding assay. The Equilibrium dissociation constant (KD) is a measure of the propensity of a complex (i.e: a ligand and receptor) to dissociate and is used to describe the affinity of an interaction between the constituents of the complex (i.e: a ligand and receptor). The skilled person will recognise that the lower the KD value, the less of the compound needed to achieve the desired effect, and as a result, the chances of undesirable off-target effects are reduced.
Compound affinity was determined by measuring the association and dissociation of compounds to Human (6-His)Sortilin (RnD Systems) using a Creoptix Wave instrument (Creoptix - Malvern Panalytical). Both Human (6-His)Sortilin immobilisation and compound evaluation were performed in HBS-N running buffer: 10 mM HEPES pH 7.4, 150 mM NaCl, 1 % DMSO - Cytiva which was filtered and degassed for 15 minutes before use.
A 4PCH WAVEchip (Creoptix - Malvern Panalytical) was conditioned prior to immobilisiation using 0.2x HBS-N running buffer with 0.1 M Borate pH 9.0, 1 M NaCl (Xantec Bioanalytics) injected across all flow cells. A buffer exchange was performed to 1x HBS-N running buffer and Human (6-His)Sortilin was immobililised in pH 5.0 Acetate solution (Cytiva) via amine coupling following EDC/NHS (Cytiva) surface activation and then passivated via injection of 50 mM Tris pH 7.4.
Compounds were tested in 'WAVE-RAPID' assays at a single concentration (usually: 1 µM, 10 µM or 100 µM) in time-response format (short pulses of increasing duration) using either 'Weak-Binders' (Settings: 400 µl/min flow rate, 40 Hz acquisiton rate, 5 seconds association time and 20 seconds dissociation time) or 'Intermediate Binders' (Settings: 100 µl/min flow rate, 10 Hz acquisiton rate, 25 seconds association time and 300 seconds dissociation time) settings. Which was deemed most appropriate was based upon the affinity and kinetics of the compound tested.
DMSO calibration was performed as per manufacturers requirements by injection of running buffer containing DMSO 0.5% above that of the running buffer DMSO (1.5 % in that instance) every 20 cycles. All data was double referenced (blank and reference-channel subtracted) with KD values calculated by fitting to a `1:1 kinetic' binding model using 'WAVEcontrol' software (Creoptix - Malvern Panalytical).

As to `CC(C)(C)CCC(C)(NCc1ccc2c(c1)CCC2)C(=O)O` (racemic) [Example 4, 2-{[(5-indanyl)methyl]amino}-2,5,5-trimethylhexanoic acid], on h-Sortilin, the IC50 is 1070 nM.
As to `CC(C)(C)CCC(C)(NCc1ccc2c(c1)CCCO2)C(=O)O` (racemic) [Example 6, 2-{[(6-chromanyl)methyl]amino}-2,5,5-trimethylhexanoic acid], on Human (6-His)Sortilin, the Kd was 760 nM.
Take `CC(C)(C)CC[C@](C)(NCc1ccc2c(c1)CCCC2)C(=O)O` [Example 2, (S)-2,5,5-trimethyl-2-(((5,6,7,8-tetrahydronaphthalen-2-yl)methyl)amino)hexanoic acid]: on Human (6-His)Sortilin, the Kd is 79 nM. On h-Sortilin, this compound gave an IC50 of 440 nM.
As to `CC(C)(C)CCC(C)(NCc1ccc2c(c1)OCCC2)C(=O)O` (racemic) [Example 5, 2-{[(7-chromanyl)methyl]amino}-2,5,5-trimethylhexanoic acid], the Kd on Human (6-His)Sortilin was determined as 713 nM.
For `CC(C)(C)CCC(C)(NCc1ccc2c(c1)COCC2)C(=O)O` (racemic) [Example 8, 2-{[(7-isochromanyl)methyl]amino}-2,5,5-trimethylhexanoic acid], the Kd at Human (6-His)Sortilin was found to be 587 nM.
Turning to `CC(C)(C)CCC(C)(NCc1ccc2c(c1)CCCC2)C(=O)O` (stereo not drawn) [Example 1, 2,5,5-trimethyl-2-(((5,6,7,8-tetrahydronaphthalen-2-yl)methyl)amino)hexanoic acid], the Kd at Human (6-His)Sortilin was 304 nM. On h-Sortilin, the IC50 came out at 740 nM.
On to `CC(C)(C)CCC(C)(NCc1ccc2c(c1)CCOC2)C(=O)O` (racemic) [Example 7, 2-{[(6-isochromanyl)methyl]amino}-2,5,5-trimethylhexanoic acid], for which the Kd on Human (6-His)Sortilin is 509 nM.

These data come from patent publication EP4428122A1, “SORTILINE MODULATORS” (Vesper Bio Aps, priority 2023, dated 2024).
